# Measured values reported in patent US20160075689A1, “POLYMERASE, ENDONUCLEASE, AND HELICASE INHIBITORS AND METHODS OF USING THEREOF” (THE BOARD OF TRUSTEES OF THE UNIVERSITY OF ARKANSAS, priority 2013, published 2016).
# What was measured:
# hpol η [1] = molecular target: T1, hpol η (Homo sapiens, UniProt Q9Y253); assay: Steady-state kinetic analysis of DNA polymerase activity; assay type: biochemical; settings: for kcat: varying dTTP
# T1 construct: human DNA polymerases η (amino acids 1-437); 6x-histidine (N, cleaved yes); GST (N, cleaved yes); made in house; host or cells: Escherichia coli BL21 (DE3)
# T1 sequence (Q9Y253 1-437): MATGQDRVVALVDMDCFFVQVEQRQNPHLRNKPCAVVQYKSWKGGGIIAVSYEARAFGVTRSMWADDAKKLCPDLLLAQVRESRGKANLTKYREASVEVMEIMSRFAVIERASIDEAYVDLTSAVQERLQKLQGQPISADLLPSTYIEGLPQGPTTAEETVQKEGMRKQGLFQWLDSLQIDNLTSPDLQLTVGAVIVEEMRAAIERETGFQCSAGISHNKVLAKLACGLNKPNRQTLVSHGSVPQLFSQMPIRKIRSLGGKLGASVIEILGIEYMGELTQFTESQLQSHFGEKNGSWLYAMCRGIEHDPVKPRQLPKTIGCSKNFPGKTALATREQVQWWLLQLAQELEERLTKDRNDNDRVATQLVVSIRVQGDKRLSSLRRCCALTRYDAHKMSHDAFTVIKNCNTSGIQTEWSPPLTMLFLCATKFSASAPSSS
# Protocol: The steady-state kinetic parameters defining polymerase activity in the presence of inhibitor were determined using the fluorescence-based reporter assay. Hpol q activity was monitored in the presence of increasing concentrations of dTTP (1, 5, 10, 20, 30, 50, 75, and 100 μM). The measured relative fluorescence units (RFUs) were converted to a nanomolar quantity by calculating the total change in fluorescence observed between the start of the reaction and the time point at which the fluorescence change was maximal, and considering that change to be 100% of substrate converted to product. The percentage of substrate converted to product was multiplied by the concentration of dsDNA in the reaction mixture. Product formation was then plotted as a function of time, and by considering only the linear portion of each curve, velocities were calculated for each dTTP concentration. These were then plotted as a function of dTTP concentration, and fit to a hyperbola. After correcting for enzyme concentration, the steady-state kinetic parameters were obtained as described previously. The experiments were then repeated in the presence of inhibitor (10, 20 and 40 μM) to determine the effect of the small-molecule upon Michaelis-Menten kinetics.
# Next, the mechanism of polymerase inhibition by ITBA-3 was investigated. The Michaelis-Menten kinetic parameters describing hpol η activity were measured in the presence of increasing concentrations of inhibitor. By varying the concentration of dTTP in the reaction mixture, the turnover number (kcat) and Michaelis constant (Km,dTTP) for hpol η were determined in the absence of inhibitor and at three concentrations of ITBA-3 (Table 3).
# hpol η [2] = molecular target: T1, hpol η; assay: Gel-based polymerase extension assay; assay type: biochemical; settings: 6 μM, 13 μM and 60 μM
# Protocol: In order to provide a second measure of enzyme inhibition, polymerase extension assays were performed. Briefly, hpol η (2 nM) was pre-incubated with FAM-13/18-mer primer-template DNA ([…]) and either DMSO (final concentration=10%) or compound (6 μM, 13 μM and 60 μM; maintaining 10% DMSO for all experiments). Polymerase catalysis was initiated by the addition of dNTP (1 mM) and MgCl2 (5 mM). The reaction was allowed to proceed at 37° C. for varying times and then terminated by the addition of 5 μL aliquots of the reaction mix to 25 μL of the quench solution (20 mM EDTA, 95% (v/v) formamide and 0.1% (w/v) bromophenol blue). The samples were separated using a 16% polyacrylamide/7M urea gel and the products analyzed using a Typhoon imager and ImageQuant™ software (GE Healthcare Life Sciences).
# hpol η [3] = molecular target: T1, hpol η; assay: Fluorescence-based DNA polymerase strand-displacement assay; assay type: biochemical
# Excerpt: A library of 320 compounds targeted against nucleic acid interacting proteins was screened for inhibition of polymerase activity using an assay that monitors fluorescence from a 5-carboxytetramethylrhodamine (TAMRA) labeled oligonucleotide. In order to prepare the DNA for the experiment, a TAMRA-labeled reporter (or displaced) strand (SEQ ID NO. 4: 5′-TTT TTT TTG C-TAMRA-3′) and unlabeled primer strand (SEQ ID NO. 5: 5′-TCA CCC TCGTAC GAC TCT T-3′) were annealed to a Black Hole Quencher (BHQ)-labeled template strand (SEQ ID NO. 6: 5′BHQ2-GCAAAAAAAAAA GAG TCG TAC GAG GGT GA-3′) in a solution containing 10 mM Tris (pH 8.0), 50 mM NaCl, 2 mM MgCl2, and dH2O. The template (T), primer (P) and displaced strand (D) oligonucleotides were mixed in a 1:1.5:1.5 (T:P:D) molar ratio for annealing. After an incubation period of three minutes at 95° C., the DNA was allowed to slowly cool to room temperature overnight.
# The fluorescence-based assay used to screen for polymerase inhibitors measures polymerase-catalyzed displacement of a TAMRA-labeled oligonucleotide (FIG. 1). For the initial screen, the experimental setup included 50 nM hpol η), 50 nM DNA, 6 μM compound, 100 μM dTTP and 1 mM MgCl2. The reactions were performed in 50 mM Tris (pH 8.0) buffer containing 40 mM NaCl, 2 mM dithiothreitol, and 0.01% (v/v) Tween-20. The concentration of dimethyl sulfoxide (DMSO) was 3.5% (v/v) for the initial screen. The enzyme, the compounds (including a DMSO control) and dTTP were combined with the reaction buffer in individual wells of each half-plate and allowed to incubate for 5-10 minutes. The DNA substrate was subsequently added to initiate the reaction and the plate was read immediately using a BioTek SynergyH4 plate reader (λex=525 nm, λem=598 run). The final reaction volume was 200 μL. Fluorescence was monitored for 90 minutes for most reactions. The initial portion of the velocity curve was analyzed by linear regression to calculate an observed rate of product formation. For each data set, eight DMSO control experiments were averaged to obtain our measure of 100% activity. Rates of product formation in the presence of each compound were then divided by the rate of the DMSO control to produce a relative measure of polymerase activity (0 to 1, with 1 being no inhibition).
# (§1) In order to determine the IC50 value for each enzyme, the fluorescence-based polymerase assay was repeated with increasing concentrations of inhibitor. The conditions varied slightly for each enzyme. With the exception of hpol ι, all IC50 experiments were performed in 50 mM Tris HCl (pH 8.0) buffer containing 1 mM MgCl2, 0.1 mM dTTP, 40 mM NaCl, 2 mM DTT, 0.01% (v/v) Tween-20 and 10% (v/v) DMSO. For experiments with hpol ι, KCl was substituted for NaCl and 0.25 mM MnCl2 was substituted for MgCl2. The concentration of inhibitor was 0, 1, 5, 10, 20, 30, 50, 75 and 100 μM. The enzyme and DNA concentrations were as follows: 10 nM hpol η, 50 nM DNA; 3 nM hpol κ, 60 nM DNA; 50 nM hpol ι, 50 nM DNA; 10 nM Dpo4, 50 nM DNA; 100 nM Dpo1, 50 nM DNA; 50 nM hpol β, 50 nM DNA; 50 nM HIV-1 RT, 50 nM DNA. The percent activity was plotted as a function of the log of inhibitor concentration and fit to a four-parameter logistic model (equation 1) using Prism software (Graph Pad, San Diego, Calif.): […]
# hpol β = molecular target: T2, hpol β (Homo sapiens, UniProt P06746); assay: Fluorescence-based polymerase assay, IC50; assay type: biochemical
# T2 construct: purchased Enzymax (Lexington, Ky.)
# Protocol: as §1
# Dpo1 = molecular target: T3, Dpo1 (Saccharolobus solfataricus, UniProt P26811); assay: Fluorescence-based polymerase assay, IC50; assay type: biochemical, Sulfolobus solfataricus
# T3 construct: made in house
# Protocol: as §1
# T3 sequence (P26811 whole entry): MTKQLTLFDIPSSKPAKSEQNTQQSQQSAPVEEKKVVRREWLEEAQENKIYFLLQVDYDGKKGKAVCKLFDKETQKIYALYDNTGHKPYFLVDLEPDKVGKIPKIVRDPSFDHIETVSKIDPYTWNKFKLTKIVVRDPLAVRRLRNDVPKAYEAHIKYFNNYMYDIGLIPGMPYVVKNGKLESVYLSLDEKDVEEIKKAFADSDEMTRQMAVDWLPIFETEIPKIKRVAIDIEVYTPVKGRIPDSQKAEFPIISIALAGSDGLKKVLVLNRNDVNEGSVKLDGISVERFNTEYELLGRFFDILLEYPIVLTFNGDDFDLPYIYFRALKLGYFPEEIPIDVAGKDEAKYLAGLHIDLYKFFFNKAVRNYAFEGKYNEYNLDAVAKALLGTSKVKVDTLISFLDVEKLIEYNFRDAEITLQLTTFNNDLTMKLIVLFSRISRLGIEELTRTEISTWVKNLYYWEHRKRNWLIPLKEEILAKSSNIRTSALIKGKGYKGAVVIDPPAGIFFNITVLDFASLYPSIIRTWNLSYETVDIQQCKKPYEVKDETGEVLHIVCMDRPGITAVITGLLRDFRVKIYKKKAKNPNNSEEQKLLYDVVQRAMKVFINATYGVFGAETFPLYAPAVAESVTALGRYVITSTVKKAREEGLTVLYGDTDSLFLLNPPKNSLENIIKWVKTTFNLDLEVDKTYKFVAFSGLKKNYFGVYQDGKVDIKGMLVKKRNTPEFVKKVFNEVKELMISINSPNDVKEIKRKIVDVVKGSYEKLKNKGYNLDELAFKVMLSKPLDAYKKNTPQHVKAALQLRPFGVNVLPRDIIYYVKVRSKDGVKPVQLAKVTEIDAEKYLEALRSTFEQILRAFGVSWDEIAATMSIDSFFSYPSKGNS
smiles,measurement,setting,value
"O=C1NC(=S)NC(=O)C1=Cc1cn(C(=O)c2ccccc2Br)c2ccc(Cl)cc12 [ITBA-3, 5-((1-(2-bromobenzoyl)-5-chloro-1H-indol-3-yl)methylene)-2-thioxodihydropyimidine-4,6-(1H,5H)-dione]",kcat,hpol η [1]; 10 μM inhibitor,0.04 ± 0.0017 s⁻¹
same,kcat,hpol η [1]; 20 μM inhibitor,0.05 ± 0.005 s⁻¹
same,kcat,hpol η [1]; 40 μM inhibitor,0.0517 ± 0.0033 s⁻¹
same,mode of inhibition,hpol η [1]; with respect to dTTP,competitive
same,"polymerase activity at increasing concentrations of inhibitor, gel-based analysis",hpol η [2],dose-dependent decrease in polymerase activity
same,IC50,"hpol η [3]; 10 nM hpol η, 50 nM DNA, mean ± standard deviation of three data sets, read-out: IC50 for inhibition of hpol η",29.8 ± 2.7 µM
same,"polymerase activity at increasing concentrations of inhibitor, fluorescence assay","hpol η [3]; 6 μM, 13 μM and 20 μM",dose-dependent decrease in polymerase activity
same,hpol η percent activity relative to the control assay,hpol η [3]; 50 μM compound,dramatic improvement in activity
same,IC50,hpol β,< 50 µM
same,IC50,Dpo1,~80 µM
